# Assays:
# [1] = tested on: C2C12 myoblasts introduced with FLAG-PARIS WT or C631S; assay: Differentiation of PARIS WT or PARIS C631S gene-introduced C2C12 myoblasts (Mhc immunostaining); type: cell-based; settings: C2C12, 0.1 M farnesol, 24 hours
# Description: Additionally, it is examined whether the presence of farnesol affects farnesylation of PARIS protein in skeletal muscles. To this end, the FLAG-PARIS wild-type (WT) gene or the FLAG-PARIS C631S mutant (hereinafter, referred to as MT) gene is overexpressed in C2C12 myoblasts, and then farnesol is treated thereto, followed by measurement of differentiation. The muscles of mice are introduced with AAV-GFP, AAV-PARIS WT or AAV-PARIS C631S viral vector, and mice are bred by feeding with farnesol, followed by measurement of mitochondrial enzyme activity.
# In FIG. 5D, C2C12 myoblasts are introduced with FLAG-PARIS wild-type (WT) gene or FLAG-PARIS C631S mutant (hereinafter, referred to as “MT”) gene, and cultured in the presence of […] farnesol in DMEM containing 10% FBS for 24 hours, followed by measurement of muscle differentiation and mitochondrial enzyme activity. Muscle differentiation is examined by immunostaining using a muscle differentiation marker, Mhc. […] The percentage of Mhc-negative nuclei indicates the cells showing no formation of red-colored myotube among the nucleus-stained myoblasts of A.
# [2] = Glucose tolerance test of old mice; type: in vivo; settings: old mouse, 1 g/kg glucose i.p. after overnight fast
# Description: (§1) 22-month-old female mice (weighing 30 g) are fed with a control diet and a farnesol diet for 4 months. That is, 22-month-old mice are fed for 4 months, and then 26-month-old mice are analyzed. […] The same mouse is used as a control group, except that it is fed with a diet containing no farnesol. Muscle strength, energy expenditure, glucose tolerance, and fat accumulation of each mouse are evaluated.
# PARIS, PGC-1α = assay: Western blotting of hind limb muscles, high fat diet for 3 months; type: in vivo, mouse; settings: high fat diet with 0.5% compound
# Source text: (§2) To prepare the PGC-1α-inhibited model, 3-month-old mouse (female, body weight of 20 g) is fed with high fat diet, in which fat is increased to 60%, compared to a negative control group, for 5 days (short-term effect) or 3 months (long-term effect). The negative control group is fed with a general diet. Farnesol is mixed in the high fat diet at a content of 0.5% (weight of farnesol/weight of diet). A positive control group is fed with high fat diet containing a type II diabetes drug, metformin at a content of 0.5% (weight of metformin/weight of diet). Mice are fed with the general diet, the high fat diet, and the high fat diet containing farnesol or metformin for 3 months, and then hind limbs are removed to analyze muscle differentiation and mitochondrial enzyme activity.
# [3] = Fat mass ratio by dual-energy X-ray absorptiometry; type: in vivo; settings: old mouse, farnesol diet 4 months
# Description: as §1
# The fat mass ratio is determined by dual-energy X-ray absorptiometry (LUNA PIXIMUS, GE Healthcare/LUNA), and measured on combined images after radiation at 40 kV X-ray and 80 kV X-ray four times, respectively.
# SDH enzyme activity = assay: SDH staining of hind limb muscles, high fat diet model; type: in vivo, mouse; settings: high fat diet with 0.5% compound, 3 months
# Source text: as §2
# [4] = LC-MS/MS of farnesol and metabolite FPP in extensor digitorum longus muscle; type: in vivo; settings: mouse orally administered with farnesol 5 weeks
# Description: The amount of intracellular farnesol or metabolite thereof is measured in the extensor digitorum longus muscle of a mouse administered with farnesol for 5 weeks.
# Sample pretreatment for quantitative analysis of farnesol in the mouse extensor digitorum longus muscle is performed by extraction using saturated KOH/ethanol and fractionation using Tris-HCl buffer and n-hexane: ethanol (Journal of Pharmaceutical and Biomedical Analysis 47(2008) 560-566) and an n-hexane layer is obtained and dried, followed by LC-MS/MS (ACQUITY UPLC System and ACQUITY TQD mass spectrometry, Waters). […] The concentration of farnesol is determined by a ratio of a peak area of farnesol to a peak area of 1-tetradecanol used as an internal standard, they are added to the sample in an equal amount.
# Sample pretreatment for quantitative analysis of a farnesol metabolite, farnesylpyrophosphate (FPP) in the mouse extensor digitorum longus muscle is performed by extraction using 2-propanol: 100 mM NH4HCO3, pH 7.8 (1:1 v/v) and protein precipitation using acetonitrile (Anal. Biochem. 383 (2008) 18-24), and a supernatant is obtained and dried, followed by LC-MS/MS (ACQUITY UPLC System and ACQUITY TQD mass spectrometry, Waters). […] The concentration of FPP is determined by a peak area.
smiles,measurement,setting,value
"CC(C)=CCC/C(C)=C/CC/C(C)=C/CO [farnesol, (2E,6E)-3,7,11-trimethyldodeca-2,6,10-trien-1-ol]","percentage of Mhc-negative nuclei, FLAG-PARIS C631S",[1],does not significantly decrease
same,"percentage of Mhc-negative nuclei, FLAG-PARIS WT",[1],significantly decreases
same,blood glucose level in glucose tolerance test,[2],remarkably low
same,decreased PGC-1α expression by high fat diet,"PARIS, PGC-1α",inhibited
same,increased PARIS level by high fat diet,"PARIS, PGC-1α",inhibited
same,fat mass ratio,[3],significantly decreased
same,percentage of muscle fibers showing increased SDH enzyme activity,SDH enzyme activity,increased
same,amount of farnesol in EDL muscle relative to control,[4],≥ 1.3 times
